Series [1] is described as follows: Static storage stability at elevated temperature/humidity (XRPD, HPLC). Type of series: physicochemical. The conditions noted are these: for Solid form by XRPD after static storage: 7 days (1 week); for HPLC purity after static storage / Appearance after static storage: 1 week.
Series [2] is described as follows: Gravimetric vapour sorption (GVS). Type of series: physicochemical. Conditions: for Hygroscopicity by GVS: 25° C.; for XRPD post-GVS (solid form): residue after GVS; for Water uptake, first sorption cycle: 40-90% RH; for Starting water content in GVS: at 40% RH. Here is the method: Sorption isotherms were obtained using a SMS DVS Intrinsic moisture sorption analyser, controlled by DVS Intrinsic Control software. The sample temperature was maintained at 25° C. by the instrument controls. The humidity was controlled by mixing streams of dry and wet nitrogen, with a total flow rate of 200 ml/min. The relative humidity was measured by a calibrated Rotronic probe (dynamic range of 1.0 — 100% RH), located near the sample. The weight change, (mass relaxation) of the sample as a function of % RH was constantly monitored by a microbalance (accuracy ±0.005 mg). Typically, 20-30 mg of sample was placed in a tared mesh stainless steel basket under ambient conditions. The sample was loaded and unloaded at 40% RH and 25° C. (typical room conditions). A moisture sorption isotherm was performed as outlined below (2 scans per complete cycle). The standard isotherm was performed at 25° C. at 10% RH intervals over a 0-90% RH range. Typically, a double cycle (4 scans) was carried out. Data analysis was carried out within Microsoft Excel using the DVS Analysis Suite. [table]

The format of series [3] is physicochemical. From the text:
There was insufficient residue to characterize these further.

Series [4] can be described thus: Intrinsic dissolution rate (IDR) in FaSSGF. Type of series: physicochemical. Conditions: Fasted State Simulated Gastric Fluid.
Series [5] can be described thus: Thermodynamic aqueous solubility. Conditions: for pH of saturated solution: water, after 24 hours equilibration at 25° C. Type of series: physicochemical. The method, then: Aqueous solubility was determined by suspending sufficient compound in 0.5 ml deionized water to give a maximum final concentration of 40 mg/ml of the parent free-form of the compound. The suspension was equilibrated at 25° C., on a Heidolph plate shaker set to 750 rpm for 24 hours. After equilibration, the appearance was noted and the pH of the saturated solution was measured. Samples forming suspensions were centrifuged for 4 min at 13,500 rpm. Samples were then filtered through a glass fiber C filter (particle retention 1.2 μm), before dilution with H2 O as appropriate. Quantitation was by HPLC (see Table 2 for parameters) with reference to a standard solution of approximately 0.15 mg/ml in DMSO. Different volumes of the standard, diluted and undiluted sample solutions were injected. The solubility was calculated using the peak areas determined by integration of the peak found at the same retention time as the principal peak in the standard injection. Analysis was performed on an Agilent HP1100/Infinity II 1260 series system equipped with a diode array detector and using OpenLAB software.

Values after ≈ are worked out from the molar mass of the structure shown. “Also recorded” adds a separate entry of the source. Structures can show the parent of a compound that is named as a salt.

For the compound `O=C(NO)c1cnc(N2C[C@@H]3[C@H](C2)[C@H]3NCc2ccc3cc(F)ccc3n2)nc1` [Mesylate Form 2, N-hydroxy 2-{6-[(6-fluoro-quinolin-2-ylmethyl)-amino]-3-aza-bicyclo[3.1.0]hex-3-yl}pyrimidine-5-carboxamide], the “Solid form by XRPD after static storage” value in series [1] (25° C./97% RH) is reported as “unchanged; also recorded: Mesylate Form 2”; in series [1] (25° C./97% RH, listed as Form 2) it was “stable after 1 week”; in series [1] (40° C./75% RH), “unchanged; also recorded: Mesylate Form 2”; in series [1] (40° C./75% RH, listed as Form 2), “stable after 1 week”. Also, the “Hygroscopicity by GVS” value in series [2] and in series [2] (listed as Form 2) was “slightly hygroscopic” throughout. The “XRPD post-GVS (solid form)” value in series [2] is “unchanged; also recorded: XRPD Post-GVS: Mesylate Form 2”.

Regarding `O=C(NO)c1cnc(N2CC3C(C2)C3NCc2ccc3cc(F)ccc3n2)nc1` (stereo not shown) [Mesylate Form 8, N-hydroxy 2-{6-[(6-fluoro-quinolin-2-ylmethyl)-amino]-3-aza-bicyclo[3.1.0]hex-3-yl}pyrimidine-5-carboxamide], the “Solid form by XRPD after static storage” value in series [1] (25° C./97% RH) and in series [1] (40° C./75% RH) was “converted to Mesylate Form 1” each time.

As to `O=C(NO)c1cnc(N2C[C@@H]3[C@H](C2)[C@H]3NCc2ccc3cc(F)ccc3n2)nc1` [Mesylate Form 3, N-hydroxy 2-{6-[(6-fluoro-quinolin-2-ylmethyl)-amino]-3-aza-bicyclo[3.1.0]hex-3-yl}pyrimidine-5-carboxamide], the “Solubility residue (solid form)” value in series [3] was “new solubility residue patterns”. In series [1] (25° C./97% RH), the “HPLC purity after static storage” value is given as 96.6% and the “Solid form by XRPD after static storage” value is “remained unchanged; also recorded: Mesylate Form 3”. In series [1] (25° C./97% RH, listed as Form 3), the “Solid form by XRPD after static storage” value is “remained as Mesylate Form 3”. In series [1] (40° C./75% RH), the “HPLC purity after static storage” value worked out at 97.0% and the “Solid form by XRPD after static storage” value was “conversion to the sesquihydrate Mesylate Form 5”. Besides, the “Solid form by XRPD after static storage” value in series [1] (40° C./75% RH, listed as Form 3) was “convert to Mesylate Form 5”. In series [2] (30-20% RH), the “Water loss, desorption cycle 1” value is “Desorption Cycle 1 22% water loss from 30-20% RH”. In series [2], the “Water uptake, first sorption cycle” value came to 2%; the “Starting water content in GVS” value is 25.1%; the “XRPD post-GVS (solid form)” value is recorded as “XRPD Post-GVS: Poorly crystalline broad reflections may match”. In addition, the “Water content on desorption cycle 1” value in series [2] (at 30% RH) came out at 24.3%.

For the compound `O=C(NO)c1cnc(N2C[C@@H]3[C@H](C2)[C@H]3NCc2ccc3cc(F)ccc3n2)nc1` [Free Base Form A, N-hydroxy 2-{6-[(6-fluoro-quinolin-2-ylmethyl)-amino]-3-aza-bicyclo[3.1.0]hex-3-yl}pyrimidine-5-carboxamide], the “IDR in FaSSGF” value in series [4] is reported as 1.1 mg/min/cm^2. Besides, the solubility at 24 h in series [5] (thermodynamic from solid, deionized water, 25° C., 24 hours, maximum final concentration 40 mg/ml of parent free-form) was determined as 1 µg/mL (≈ 2.54 µM). In addition, in series [5], the “pH of saturated solution” value was “(pH = 7.4)”.

In the case of `O=C(NO)c1cnc(N2C[C@@H]3[C@H](C2)[C@H]3NCc2ccc3cc(F)ccc3n2)nc1` [Free Base Form B, N-hydroxy 2-{6-[(6-fluoro-quinolin-2-ylmethyl)-amino]-3-aza-bicyclo[3.1.0]hex-3-yl}pyrimidine-5-carboxamide], the “IDR in FaSSGF” value in series [4] is reported as 1.8 mg/min/cm^2. Also, the Solubility in water in series [5] (deionized water, 25° C., 24 hours, maximum final concentration 40 mg/ml of parent free-form) was 1 µg/mL (≈ 2.54 µM). Moreover, the “pH of saturated solution” value in series [5] is recorded as “(pH = 7.4)”.

With `O=C(NO)c1cnc(N2C[C@@H]3[C@H](C2)[C@H]3NCc2ccc3cc(F)ccc3n2)nc1` [Mesylate Form 5, N-hydroxy 2-{6-[(6-fluoro-quinolin-2-ylmethyl)-amino]-3-aza-bicyclo[3.1.0]hex-3-yl}pyrimidine-5-carboxamide], the “Solubility residue (solid form)” value in series [3] is “new solubility residue patterns”. In series [1] (25° C./97% RH), the “HPLC purity after static storage” value was 99.5% and the “Solid form by XRPD after static storage” value is “remained as Mesylate Form 5; also recorded: Unchanged: Mesylate Form 5”. In addition, in series [1] (40° C./75% RH), the “HPLC purity after static storage” value came out at 99.5% and the “Solid form by XRPD after static storage” value is “remained as Mesylate Form 5; also recorded: Unchanged: Mesylate Form 5”. Moreover, in series [2], the “Hygroscopicity by GVS” value is given as “hygroscopic” and the “XRPD post-GVS (solid form)” value was “remaining unchanged; also recorded: stable after GVS analysis; also recorded: XRPD Post-GVS: Mesylate Form 5”.

On to `O=C(NO)c1cnc(N2CC3C(C2)C3NCc2ccc3cc(F)ccc3n2)nc1` (stereo not shown) [amorphous mesylate salt, N-hydroxy 2-{6-[(6-fluoro-quinolin-2-ylmethyl)-amino]-3-aza-bicyclo[3.1.0]hex-3-yl}pyrimidine-5-carboxamide], for which the “Solid form by XRPD after static storage” value in series [1] (25° C./97% RH) is given as “Amorphous, with low-level peak at 3.7° 2θ”; in series [1] (25° C./97% RH, listed as amorphous) it was “largely amorphous”; in series [1] (40° C./75% RH), “Amorphous, with low-level peak at 3.7° 2θ”; in series [1] (40° C./75% RH, listed as amorphous), “largely amorphous”.

Consider `O=C(NO)c1cnc(N2C[C@@H]3[C@H](C2)[C@H]3NCc2ccc3cc(F)ccc3n2)nc1` [Compound 1, N-hydroxy-2-{6-[(6-fluoro-quinolin-2-ylmethyl)-amino]-3-aza-bicyclo[3.1.0]hex-3-yl}pyrimidine-5-carboxamide], for which the Solubility in water result in series [5] (deionized water, 25° C., 24 hours, maximum final concentration 40 mg/ml of parent free-form, listed as Free base) is “essentially insoluble in water”.

`O=C(NO)c1cnc(N2CC3C(C2)C3NCc2ccc3cc(F)ccc3n2)nc1` (stereo not shown) [Mesylate Form 7, N-hydroxy 2-{6-[(6-fluoro-quinolin-2-ylmethyl)-amino]-3-aza-bicyclo[3.1.0]hex-3-yl}pyrimidine-5-carboxamide]: the “Solid form by XRPD after static storage” value in series [1] (25° C./97% RH) and in series [1] (40° C./75% RH) was “converted to Mesylate Form 1” in each case.

Take `O=C(NO)c1cnc(N2C[C@@H]3[C@H](C2)[C@H]3NCc2ccc3cc(F)ccc3n2)nc1` [Mesylate Form 4, N-hydroxy 2-{6-[(6-fluoro-quinolin-2-ylmethyl)-amino]-3-aza-bicyclo[3.1.0]hex-3-yl}pyrimidine-5-carboxamide]: in series [3], the “Thermodynamic solubility in FaSSGF” value worked out at 24000 µg/mL. Besides, in series [1] (25° C./97% RH), the “HPLC purity after static storage” value was found to be 99.5% and the “Solid form by XRPD after static storage” value is listed as “conversion to Mesylate Form 1; also recorded: converted to Mesylate Form 1”. For the same compound, the “HPLC purity after static storage” value in series [1] (40° C./75% RH) was 99.4%. For the same compound, in series [2], the “Water uptake, first sorption cycle” value is on record as 0.7%; the “Starting water content in GVS” value stood at 9.4%; the “XRPD post-GVS (solid form)” value was “conversion to Mesylate Form 1; also recorded: Post-GVS: Converted to Mesylate Form 1 by XRPD”. Moreover, the “Gradual water loss, desorption cycle 1” value in series [2] (down to 20% RH) was determined as 0.8%.

On to `O=C(NO)c1cnc(N2CC3C(C2)C3NCc2ccc3cc(F)ccc3n2)nc1` (stereo not shown) [Mesylate Form 9, N-hydroxy 2-{6-[(6-fluoro-quinolin-2-ylmethyl)-amino]-3-aza-bicyclo[3.1.0]hex-3-yl}pyrimidine-5-carboxamide], for which the “Appearance after static storage” value in series [1] (25° C./97% RH) is “Sample appeared wet-white solid still present”; in series [1] (40° C./75% RH) it was “color change to yellow; also recorded: Sample appeared ‘damp’-yellow solid present”. Further, the “Solid form by XRPD after static storage” value in series [1] (25° C./97% RH) is listed as “Poorly crystalline-Mesylate Form 1”; in series [1] (40° C./75% RH) it was “Mesylate Form 1”.

For `O=C(NO)c1cnc(N2CC3C(C2)C3NCc2ccc3cc(F)ccc3n2)nc1` (stereo not shown) [Mesylate Form 6, N-hydroxy 2-{6-[(6-fluoro-quinolin-2-ylmethyl)-amino]-3-aza-bicyclo[3.1.0]hex-3-yl}pyrimidine-5-carboxamide], the “Solid form by XRPD after static storage” value in series [1] (25° C./97% RH) and in series [1] (40° C./75% RH) was “converted to Mesylate Form 1” throughout.

These data come from patent US20230382888A1, “HDAC INHIBITOR SOLID STATE FORMS” (Viracta Subsidiary, Inc., priority 2020, published 2023).
